The values below come from US12661410B2, “Compounds for targeted degradation of RET” (C4 Therapeutics, Inc., priority 2020, dated 2026).

The structures appear in SMILES notation. Where a chain is given by its changes, count along the chain named. Structures can show the parent of a compound that is named as a salt. Where two headings read alike, the source gives them in different places.

For assay [1], the target named is T1, RET(KD: 658-1114 G810R) (Homo sapiens, UniProt P07949, G810R).
T1 construct: 658-1114; expressed in transfected cells; host or cells: 293T.165 (293T cells, generated in-house)
T1 sequence (P07949 658-1114 G810R): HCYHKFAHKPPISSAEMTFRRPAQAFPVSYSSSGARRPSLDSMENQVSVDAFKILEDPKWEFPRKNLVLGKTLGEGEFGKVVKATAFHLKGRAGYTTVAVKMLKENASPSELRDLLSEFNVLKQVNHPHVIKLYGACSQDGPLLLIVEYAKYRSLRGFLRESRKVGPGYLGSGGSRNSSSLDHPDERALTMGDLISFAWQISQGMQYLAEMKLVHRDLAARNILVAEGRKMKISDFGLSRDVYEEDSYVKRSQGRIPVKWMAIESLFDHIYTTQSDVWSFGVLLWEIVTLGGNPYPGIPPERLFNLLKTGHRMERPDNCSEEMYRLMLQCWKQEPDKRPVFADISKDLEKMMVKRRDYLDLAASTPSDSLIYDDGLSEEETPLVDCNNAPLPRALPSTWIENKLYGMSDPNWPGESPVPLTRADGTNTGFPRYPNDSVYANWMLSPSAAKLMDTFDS
Briefly: HiBiT-Degradation, RET G810R degradation assay (Nano-Glo HiBiT Lytic), 293T.165 cells. In kind it is cell-based. The following applies: for Emax / DC50: 6.0 hours; for Emax: % remaining protein, read-out: 293T.165 RET(KD: 658-1114 G810R) 6.0 hours (Emax); for DC50: read-out: 293T.165 RET(KD: 658-1114 G810R) 6.0 hours (DC50). The procedure, abridged:
(§1)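 6 h treatment, 293T.144 (WT) / 293T.165 (G810R) cells ectopically expressing HiBiT-fused RET KD; 11-pt half-log dilution, top 10 μM, n=2. Nano-Glo HiBiT lytic detection, luminescence. Output: DC50, Emax (% protein remaining).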
For orientation: With HiBiT, luminescence reflects the tagged protein that the partner subunit can reach.

In assay [2] the target is T2, RET (658-1114) (Homo sapiens, UniProt P07949).
T2 construct: 658-1114; expressed in transfected cells; host or cells: 293T.144 (293T cells, generated in-house)
T2 sequence (P07949 658-1114): T1 sequence (P07949 658-1114 G810R) with R153G
The experiment in a line: HiBiT-Degradation, RET wild-type degradation assay (Nano-Glo HiBiT Lytic), 293T.144 cells. In kind it is cell-based. The note with it: HiBiT-Degradation; for DC50 / Emax: 6.0 hours; for DC50: read-out: 293T.144 RET (658-1114) 6.0 hours (DC50); for Emax: read-out: 293T.144 RET (658-1114) 6.0 hours (Emax). The gist of the method:
as §1

Where [3] appears, read: half-maximal degradation concentration.

With `N#Cc1cnn2cc(-c3cnn(C4CCN(CCN5CCC(c6ccc(NC7CCC(=O)NC7=O)cc6F)CC5)CC4)c3)cc(-c3ccc(N4CCN(Cc5ccccn5)CC4)nc3)c12` (stereo not shown) [Compound 12, 6-(1-(1-(2-(4-(4-((2,6-Dioxopiperidin-3-yl)amino)-2-fluorophenyl)piperidin-1-yl)ethyl)piperidin-4-yl)-1H-pyrazol-4-yl)-4-(6-(4-(pyridin-2-ylmethyl)piperazin-1-yl)pyridin-3-yl)pyrazolo[1,5-a]pyridine-3-carbonitrile], the Emax in assay [1] was < 50%. In addition, the DC50 in assay [1] (setting [3]) was < 100 nM. In addition, in assay [1] (HiBiT-Degradation), the “293T.165 RET(KD: 658-1114 G810R) 6.0 hours (Emax)” value is on record as “+++ (<50% = +++)”, the “293T.165 RET(KD: 658-1114 G810R) 6.0 hours (IP) [nM]” value is given as “++++ (< 50 nM = ++++)” and the DC50 was < 100 nM. Also, in assay [2], the “293T.144 RET (658-1114) 6.0 hours (IP) [nM]” value (“293T.144 RET” for short) is “++++ (< 50 nM = ++++)”, the DC50 was < 50 nM and the Emax was < 30%.
As for `Cn1nc(N2CCC(=O)NC2=O)c2ccc(C3CCN(CC(=O)N4CCC(n5cc(-c6cc(-c7ccc(N8CCN(Cc9ccccn9)CC8)nc7)c7c(C#N)cnn7c6)cn5)CC4)CC3)cc21` [Compound 13, 6-(1-(1-(2-(4-(3-(2,4-dioxotetrahydropyrimidin-1(2H)-yl)-1-methyl-1H-indazol-6-yl)piperidin-1-yl)acetyl)piperidin-4-yl)-1H-pyrazol-4-yl)-4-(6-(4-(pyridin-2-ylmethyl)piperazin-1-yl)pyridin-3-yl)pyrazolo[1,5-a]pyridine-3-carbonitrile], the Emax in assay [1] was < 50%. For the same compound, in assay [1] (setting [3]), the DC50 is < 100 nM. Also, in assay [1] (HiBiT-Degradation), the “293T.165 RET(KD: 658-1114 G810R) 6.0 hours (Emax)” value is “+++ (<50% = +++)”, the “293T.165 RET(KD: 658-1114 G810R) 6.0 hours (IP) [nM]” value was “++++ (< 50 nM = ++++)” and the DC50 is < 100 nM. In assay [2], the “293T.144 RET” value was “++++ (< 50 nM = ++++)”, the DC50 is < 50 nM and the Emax was < 30%.
`CCC1(C(=O)NC(C)C)CCN(c2ccc(-c3nc(-c4cnn(C5CCN(C(=O)CC6(O)CCN(c7ccc(NC8CCC(=O)NC8=O)cc7Cl)CC6)CC5)c4)cn4ncc(C#N)c34)cn2)CC1` (stereo not shown) [Compound 14, 1-(5-(6-(1-(1-(2-(1-(2-Chloro-4-((2,6-dioxopiperidin-3-yl)amino)phenyl)-4-hydroxypiperidin-4-yl)acetyl)piperidin-4-yl)-1H-pyrazol-4-yl)-3-cyanopyrazolo[1,5-a]pyrazin-4-yl)pyridin-2-yl)-4-ethyl-N-isopropylpiperidine-4-carboxamide]: in assay [1], the Emax was < 30%. The DC50 in assay [1] (setting [3]) is < 50 nM. In addition, in assay [1] (HiBiT-Degradation), the “293T.165 RET(KD: 658-1114 G810R) 6.0 hours (Emax)” value is given as “++++ (< 30% = ++++)”, the “293T.165 RET(KD: 658-1114 G810R) 6.0 hours (IP) [nM]” value is given as “++++ (< 50 nM = ++++)” and the DC50 was < 50 nM. Also, in assay [2], the “293T.144 RET” value was “++++ (< 50 nM = ++++)”, the DC50 is < 50 nM and the Emax was < 30%.
On to `N#Cc1cnn2cc(-c3cnn(C4CCN(C(=O)CN5CCC(c6ccc(NC7CCC(=O)NC7=O)cc6)CC5)CC4)c3)cc(-c3ccc(N4CCN(C(=O)Cc5ccc(F)cn5)CC4)nc3)c12` (stereo not shown) [Compound 15, 6-[1-[1-[2-[4-[4-[(2,6-dioxo-3-piperidyl)amino]phenyl]-1-piperidyl]acetyl]-4-piperidyl]pyrazol-4-yl]-4-[6-[4-[2-(5-fluoro-2-pyridyl)acetyl]piperazin-1-yl]-3-pyridyl]pyrazolo[1,5-a]pyridine-3-carbonitrile formic acid salt], for which, in assay [1], the Emax was < 30%. In addition, the DC50 in assay [1] (setting [3]) is < 100 nM. In assay [1] (HiBiT-Degradation), the “293T.165 RET(KD: 658-1114 G810R) 6.0 hours (Emax)” value is listed as “++++ (< 30% = ++++)”, the “293T.165 RET(KD: 658-1114 G810R) 6.0 hours (IP) [nM]” value is listed as “++++ (< 50 nM = ++++)” and the half-maximal degradation concentration (DC50) is < 100 nM. Besides, in assay [2], the “293T.144 RET” value is recorded as “++++ (< 50 nM = ++++)”, the DC50 is < 50 nM and the Emax is < 30%.
In the case of `N#Cc1cnn2cc(-c3ccc(N4CCN(C(=O)CN5CCC(c6ccc(NC7CCC(=O)NC7=O)cc6F)CC5)CC4)cc3)cc(-c3ccc(N4CCN(C(=O)Cc5ccc(F)cn5)CC4)nc3)c12` (stereo not shown) [Compound 16, 6-[4-[4-[2-[4-[4-[(2,6-dioxo-3-piperidyl)amino]-2-fluoro-phenyl]-1-piperidyl]acetyl]piperazin-1-yl]phenyl]-4-[6-[4-[2-(5-fluoro-2-pyridyl)acetyl]piperazin-1-yl]-3-pyridyl]pyrazolo[1,5-a]pyridine-3-carbonitrile], the Emax in assay [1] is < 30%. Also, the DC50 in assay [1] (setting [3]) is < 100 nM. For the same compound, in assay [1] (HiBiT-Degradation), the “293T.165 RET(KD: 658-1114 G810R) 6.0 hours (Emax)” value was “++++ (< 30% = ++++)”, the “293T.165 RET(KD: 658-1114 G810R) 6.0 hours (IP) [nM]” value is on record as “++++ (< 50 nM = ++++)” and the 50% degradation concentration (DC50) was < 100 nM. Moreover, in assay [2], the “293T.144 RET” value is “++++ (< 50 nM = ++++)”, the DC50 is < 50 nM and the Emax was < 30%.
Regarding `N#Cc1cnn2cc(-c3ccc(N4CCN(C(=O)CN5CCC(c6ccc(NC7CCC(=O)NC7=O)cc6)CC5)CC4)cc3)cc(-c3ccc(N4CC5CC5C4)nc3)c12` (stereo not shown) [Compound 17, 4-[6-(3-azabicyclo[3.1.0]hexan-3-yl)-3-pyridyl]-6-[4-[4-[2-[4-[4-[(2,6-dioxo-3-piperidyl)amino]phenyl]-1-piperidyl]acetyl]piperazin-1-yl]phenyl]pyrazolo[1,5-a]pyridine-3-carbonitrile], the Emax in assay [1] is < 30%. Moreover, the DC50 in assay [1] (setting [3]) is < 50 nM. In assay [1] (HiBiT-Degradation), the “293T.165 RET(KD: 658-1114 G810R) 6.0 hours (Emax)” value is “++++ (< 30% = ++++)”, the “293T.165 RET(KD: 658-1114 G810R) 6.0 hours (IP) [nM]” value is recorded as “++++ (< 50 nM = ++++)” and the half-maximal degradation concentration (DC50) is < 50 nM. For the same compound, in assay [2], the “293T.144 RET” value is “++++ (< 50 nM = ++++)”, the DC50 is < 50 nM and the Emax is < 30%.
For the compound `N#Cc1cnn2cc(-c3ccc(N4CCN(C(=O)CN5CCC(c6ccc(NC7CCC(=O)NC7=O)cc6)CC5)CC4)cc3)cc(-c3ccc(N4CCN(CCc5ccccn5)CC4)nc3)c12` (stereo not shown) [Compound 18, 6-(4-(4-(2-(4-(4-((2,6-Dioxopiperidin-3-yl)amino)phenyl)piperidin-1-yl)acetyl)piperazin-1-yl)phenyl)-4-(6-(4-(2-(pyridin-2-yl)ethyl)piperazin-1-yl)pyridin-3-yl)pyrazolo[1,5-a]pyridine-3-carbonitrile], the Emax in assay [1] is < 30%. The DC50 in assay [1] (setting [3]) was < 100 nM. In assay [1] (HiBiT-Degradation), the “293T.165 RET(KD: 658-1114 G810R) 6.0 hours (Emax)” value was “++++ (< 30% = ++++)”, the “293T.165 RET(KD: 658-1114 G810R) 6.0 hours (IP) [nM]” value is recorded as “++++ (< 50 nM = ++++)” and the DC50 was < 100 nM. In assay [2], the “293T.144 RET” value is “++++ (< 50 nM = ++++)”, the DC50 was < 50 nM and the Emax was < 30%.
For `N#Cc1cnn2cc(-c3ccc(N4CCN(C(=O)CN5CCC(c6ccc(NC7CCC(=O)NC7=O)cc6)CC5)CC4)cc3)cc(-c3ccc(N4C[C@H]5CC[C@@H](C4)O5)nc3)c12` (stereo partly drawn) [Compound 19, 4-(6-((1R,5S)-8—Oxa-3-azabicyclo[3.2.1]octan-3-yl)pyridin-3-yl)-6-(4-(4-(2-(4-(4-((2,6-dioxopiperidin-3-yl)amino)phenyl)piperidin-1-yl)acetyl)piperazin-1-yl)phenyl)pyrazolo[1,5-a]pyridine-3-carbonitrile], the Emax in assay [1] is < 50%. The 50% degradation concentration (DC50) in assay [1] (setting [3]) is < 100 nM. Also, in assay [1] (HiBiT-Degradation), the “293T.165 RET(KD: 658-1114 G810R) 6.0 hours (Emax)” value is listed as “+++ (<50% = +++)”, the “293T.165 RET(KD: 658-1114 G810R) 6.0 hours (IP) [nM]” value was “++++ (< 50 nM = ++++)” and the 50% degradation concentration (DC50) is < 100 nM. In addition, in assay [2], the “293T.144 RET” value is “++++ (< 50 nM = ++++)”, the DC50 was < 50 nM and the maximal effect (Emax) was < 30%.

The Emax is the maximal effect, on the per cent scale that the assay sets. Usually DC50 stands for the concentration at which degradation of the target reaches its halfway point.
